For assay [1], the system named is PC-3 prostate cancer cells. Description: Example T: sensitisation of PC-3 cells to doxorubicin, oxaliplatin, paclitaxel or vincristine, Wst1. As to conditions: PC-3 cells, 72 hours; for viability at 0.4 µM: compound 0.4 μM alone; for Doxorubicin 3.5 μM: percent cell survival / Oxaliplatin 100 μM: percent cell survival / Paclitaxel 50 μM: percent cell survival / Vincristine 100 nM: percent cell survival: chemotherapy agent alone normalized to 100%. The class given is cell-based, human.

Assay [2] concerns Cryptococcus neoformans (serotype D). Kind of assay: Example K: Cryptococcus neoformans (serotype D) growth inhibition. The class given is cell-based. Particulars: Cryptococcus deneoformans, OD of 48 hour reading, 37° C., tested 4 to 60 μM, XLfit. The procedure:
Cryptococcus neoformans (serotype D) were plated in 96 well plates with 144 μl/well of 8×10e5 CFU/ml in YM growth medium. Diluted compounds were then added to each well with concentration ranged from 4 to 60 μM as final concentration in duplicates. The plates were inoculated at 37° C. for total of 48 hours. Two readings of OD at 600 nm were measured after 30 and 48 hour treatments.
• 1. Pick a single colony of Cryptococcus from the YM agar plate using the inoculum loop and inoculate into a 125 ml flask containing 25 ml of YM growth medium. • 2. Incubate at 37° C. with shaking at 220 rpm for 24 hours with loosen lid to allow air in and facilitates growth. • 3. Examine an aliquot of the culture under a microscope for yeast cell morphology and lack of bacterial contamination. • 4. Dilute the overnight culture with YM medium at 1:100 dilution and count the number of cells as 1×10^6 cfu/ml. • 5. Make a final concentration of cells suspension at 8×10^5 cfu/ml in YM medium. • 6. Plate 144 μl/well of 8×10^5 cfu/ml cell suspension on 96-well plates. Part-II: Cryptococcus Growth Inhibition Testing with Compounds • 1. From 10 mM DMSO stock solutions, make serial dilutions of compounds to 0.1, 0.2, 0.3, 0.5, 1.0 and 1.5 mM solution. • 2. Add 6 ul each of diluted compound solutions per well in duplicates. The final concentrations were 0, 4, 8, 12, 20, 40 and 60 micromolar. • 3. Incubated all plates at 37° C. overnight (30 hours) with 150 rpm shaking. • 4. Read absorbance at OD600 for each plate. • 5. Leave plates in 37° C. incubator for another day and read absorbance at OD600 again at 48 hours to ensure the inhibitory effect of the compounds. • 6. Calculated the % inhibition and IC50 of each compound against untreated cells.

The test system of assay [3] is PC3 human prostate cancer cells. Description: Example S: in vitro anticancer screen, PC-3 cells, Wst1. The class given is cell-based. As to conditions: Homo sapiens, PC-3, approximately 20 hours, Wst1, read-out: PC-3, percent of cancer cell survival relative to vehicle treated cells. In outline: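 PC-3 cells, 2×10^4 cells/well, exposed ~20 h to vehicle or compound at 0.4, 0.5 or 2.5 μM as specified per compound. Wst1 dye added for 2 h; absorbance 450 nm (reference 630 nm), triplicates. Values are percent cell survival versus vehicle-treated cells.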

Assay [4] has as its system THP-1 cells. Kind of assay: Example D: LPS-triggered THP-1 cell death assay, acute/5-hour and chronic/48-hour. The class given is cell-based, Human. As to conditions: for Viable cell percent change, Chronic/48-hour, Mean: 10 ng/ml LPS, 0.1 μM test compound. The procedure:
Compounds of the invention were tested at 0.1 μM versus AC in the LPS-triggered THP-1 cell death assay. Both acute/5-hour and chronic/48-hour phases of cell death were assessed. Compounds were screened in batches with DMSO as the negative control and AC as the high activity control.

The subject of assay [5] is 4T1 murine breast cancer cells. Kind of assay: Example S: in vitro anticancer screen, 4T1 cells, Wst1. Particulars: Mus musculus, 4T1, 18 h, 18 hr, Wst1; for viability at 1 µM: read-out: 4T1 1 μM, percent of cancer cell survival relative to vehicle treated cells; for viability at 5 µM: read-out: 4T1 5 μM, percent of cancer cell survival relative to vehicle treated cells. The class given is cell-based, mouse. An outline of the steps: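 4T1 cells seeded at 1×10^4/well were exposed to compound at 1 μM or 5 μM for 18 hr after plating. Wst1 tetrazolium dye was then added for about 2 hr and absorbance read at 450 nm (reference 630 nm). Values are percent survival relative to vehicle-treated cells.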

Assay [6] concerns S. cerevisiae. Kind of assay: Example I: Saccharomyces cerevisiae growth inhibition (OD 600 nm). The class given is cell-based. As to conditions: for IC50 / MIC: Saccharomyces cerevisiae, 18 hour incubation at 30° C., OD 600 nm, XLfit; for IC50: read-out: IC50, uM (50% inhibition of fungal growth); for MIC: read-out: MIC, uM (99% of inhibition of fungal growth). The procedure: An overnight culture of S. cerevisiae was dilution in YPD broth to concentration of 40,000/ml and 150 μl/well was plated in 96 well plates. Compounds were then added to each well with concentration ranged from 4 to 50 μM as final concentration. The plates were inoculated at 30° C. overnight with shaking at 220 rpm and absorbance at 600 nm was read after 18 hour incubation.
• 1. One days prior to the inoculum preparation, pick a single colony of S. cerevisiae from the Sabouraud Dextrose Agar plate using the inoculum loop and inoculate into a 50 mL tube containing 10 ml of YPD growth medium • 2. Incubate at 30° C. with shaking at 220 rpm for 24 hours with loosen lid to allow air in and facilitates growth. • 3. Examine an aliquot of the culture under a microscope for yeast cell morphology and lack of bacterial contamination. • 4. Dilute the overnight culture with YPD medium at 1:30 dilution (70 ul to 2.1 ml) and count the number of cells as 4,230,000/ml. • 5. Mix 620 μl of 1:30 dilution and 64.4 ml YPD to make final concentration of 40,000/ml cells • 6. Plated 144 μl/well in four 96-well plates.
• 1. From 10 mM DMSO stock solutions, make serial dilutions of compounds to 0.1, 0.2, 0.3, 0.63 and 1.25 mM solutions • 2. Add 6 μl each of diluted compound solutions per well in duplicates. The final concentrations were 0, 4, 8, 12, 25 and 50 micromolar. • 3. Incubated all plates at 30 C for overnight (˜18 hours) with 220 rpm shaking. • 4. Read absorbance at OD600 for each plate on Spectra Max Plus plate reader. • 5. Calculate the % inhibition of each compound against the DMSO treated cell and plotted.

Assay [7] relates to Candida albicans strain 3153. Description: Example H: Candida albicans growth inhibition (OD 600 nm). The format is cell-based. The procedure:
A single colony of Candida Albicans was grown in 50 ml YPD broth overnight (19 hr). The cells were washed with PBS and 3.5×10^4 CFU/ml of C. Albicans (144 μl/well) in YPD medium were plated in 96 well plates. Test compounds were then added to each well with concentration ranged from 5 to 40 μM as final concentrations. The plates were incubated at 30° C. overnight (24 hrs) and OD at 600 nm was read at the end of incubation as an index of yeast cell density.
Part-I: Preparation of Candida albicans Cells • 1. One day prior to the inoculum preparation, pick a single colony of Candida albicans strain 3153 (lot #61794) from the Sabouraud Dextrose Agar plate using the inoculum loop and inoculate into a 250 mL flask containing 50 ml of YPD growth medium • 2. Incubate at 30° C. with shaking at 150 rpm for at least 18 hours with loosened lid to allow air in and facilitate growth. • 3. Examine an aliquot of the culture under a microscope for Candida cell morphology and lack of bacterial contamination; >95% of Candida cells should be blastoconidia. • 4. Transfer 25 ml the overnight culture into a 50-ml plastic disposable centrifuge tube, and centrifuge at 1000×g for 20 min. • 5. Discard the supernatant and wash the pellet with 4 ml of PBS at three times. Vortex and centrifuge, 1000×g for 10 min. • 6. After the third wash, dispense the pellet with 2 ml PBS and vortex. • 7. Make three 1:10 serial dilutions in sterile PBS (10^−1, 10^−2, 10^−3) from the 2 ml cell suspension using 15 ml culture tubes. The final volume in each tube is 5 ml. • 8. […] Make a 1:4 dilution in YPD medium from the 50-fold dilution of 10^−3 cell suspension for testing compounds. • The final C. albicans cell concentration for the test: 3.5×10^4 CFU/ml • 10. Plated 144 ul/well of the above dilution of cell on 96-well plates. Part-II: C. Albicans Growth Inhibition Testing with Compounds • 1. From 10 mM DMSO stock solutions, make serial dilutions of compounds to 0.13, 0.25, 0.40, 0.55, 0.75 and 1.0 mM solutions • 2. Add 6 ul each of diluted compound solutions per well in duplicates. The final concentrations were 0, 5, 10, 16, 22, 30 and 40 micromolar. • 3. Incubated all plates at 30 C for overnight (˜24 hours). • 4. Read absorbance at OD600 for each plate. • 5. Calculate the % inhibition of each compound against the DMSO treated cell.

The mark [8] stands for this setting: Homo sapiens, Wst1, vehicle = 100, read-out: No Chemo: percent cell survival.
Where [9] appears, read: compound 0.4 μM + doxorubicin 3.5 μM.
[10] abbreviates: compound 0.4 μM + oxaliplatin 100 μM.
Setting [11] is: compound 0.4 μM + paclitaxel 50 μM.
Where [12] appears, read: compound 0.4 μM + vincristine 100 nM.

We go through 4 compounds from patent US20250034139A1, “AMINE COMPOUNDS HAVING ANTI-INFLAMMATORY, ANTIFUNGAL, ANTIPARASITIC, AND ANTICANCER ACTIVITY” (PHARMA CINQ, LLC, priority 2013, published 2025).

Values after ≈ are worked out from the molar mass of the structure shown.

With `COc1ccc(OCCCCCCCCNc2ccnc3ccccc23)cc1` [AD, N-[8-(4-Methoxyphenoxy)octyl]quinolin-4-amine], the viability at 0.4 µM in assay [1] (setting [8]) and in assay [3] was 54.7% throughout. In addition, the “Doxorubicin 3.5 μM: percent cell survival” value in assay [1] (setting [9]) was 23.9%. In addition, the “Oxaliplatin 100 μM: percent cell survival” value in assay [1] (setting [10]) is on record as 23.1%. In addition, the “Paclitaxel 50 μM: percent cell survival” value in assay [1] (setting [11]) is reported as 46.1%. Also, the “Vincristine 100 nM: percent cell survival” value in assay [1] (setting [12]) was 46.7%. In assay [2] (read-out: IC50 (concentration for 50% of inhibition)), the IC50 came to 3.98 µM. Also, the MIC in assay [2] (read-out: MIC (concentration for maximum-99% of inhibition)) is 45.2 µM (≈ 17.1 µg/mL). In assay [4], the “Viable cell percent change, Chronic/48-hour, Mean” value (shortened to “Viable cell percent change”) is 26.01%. Further, the “activity relative to AC in the LPS-triggered THP-1 cell death assay, in words” value in assay [4] (0.1 μM, 5-hour and 48-hour time points) was “equivalent activity to AC at both the 5-hour and 48-hour time points”. Besides, the viability at 1 µM in assay [5] amounted to 21.6%. The viability at 5 µM in assay [5] is 51.1%.

Turning to `CCCCCCOCCCCCCCCNc1ccnc2cc(C(F)(F)F)ccc12` [AY, N-[8-(Hexyloxy)octyl]-7-(trifluoromethyl)quinolin-4-amine], in assay [1] (Homo sapiens, compound 2.5 μM alone, Wst1, vehicle = 100, read-out: No Chemo: percent cell survival), the viability at 2.5 µM came to 50.4%. Moreover, the “Doxorubicin 3.5 μM: percent cell survival” value in assay [1] (compound 2.5 μM + doxorubicin 3.5 μM) is given as 78.9%. Moreover, in assay [1] (compound 2.5 μM + oxaliplatin 100 μM), the “Oxaliplatin 100 μM: percent cell survival” value is 92%. In addition, the “Paclitaxel 50 μM: percent cell survival” value in assay [1] (compound 2.5 μM + paclitaxel 50 μM) amounted to 90.1%. For the same compound, the “Vincristine 100 nM: percent cell survival” value in assay [1] (compound 2.5 μM + vincristine 100 nM) was determined as 78.7%. In addition, in assay [3] (2.5 μM), the viability at 2.5 µM was 50.4%. For the same compound, the “Viable cell percent change” value in assay [4] is given as 7.71%. In addition, in assay [5], the viability at 1 µM amounted to 131% and the viability at 5 µM was found to be 34.5%. Moreover, in assay [6], the IC50 was 16.9 µM and the MIC was found to be 21.9 µM (≈ 9.29 µg/mL).

For the compound `CCCCCCNC(=O)c1cccc(Nc2ccnc3ccccc23)c1` [BV, N-Hexyl-3-(quinolin-4-ylamino)benzamide], in assay [3], the viability at 0.4 µM amounted to 31.6%. Also, in assay [4], the “Viable cell percent change” value is on record as 42.14%. In assay [6], the IC50 is 12.3 µM and the MIC is 25 µM (≈ 8.69 µg/mL).

Turning to `c1ccc2c(NCCCCCCCCNc3ccnc4ccccc34)ccnc2c1` [Compound AI, N^1,N^8-Di(quinolin-4-yl)octane-1,8-diamine], the viability at 0.4 µM in assay [1] (setting [8]) and in assay [3] was 36.4% throughout. The “Doxorubicin 3.5 μM: percent cell survival” value in assay [1] (setting [9]) is 80.8%. For the same compound, the “Oxaliplatin 100 μM: percent cell survival” value in assay [1] (setting [10]) was 89%. In addition, the “Paclitaxel 50 μM: percent cell survival” value in assay [1] (setting [11]) came to 96.1%. The “Vincristine 100 nM: percent cell survival” value in assay [1] (setting [12]) is reported as 64.9%. The MIC in assay [7] (Candida albicans, 3153, 24 hrs at 30° C., YPD, XLfit, read-out: MIC (uM) (99% of inhibition of fungal growth)) was found to be 56.4 µM (≈ 22.5 µg/mL). In addition, the IC50 turned out to be 18.3 µM in assay [7] (Candida albicans, 3153, read-out: IC50 (uM) (50% inhibition of fungal growth), 24 hrs at 30° C., YPD, XLfit) and 6.31 µM in assay [6]. Further, the “Viable cell percent change” value in assay [4] worked out at 28.60%. Besides, in assay [5], the viability at 1 µM came to 16.2%. Moreover, in assay [5], the viability at 5 µM was determined as 17.9%. The “inactive compound (inhibition of yeast growth, in words)” value in assay [6] (tested 4 to 50 μM) is “could not reach near 100% kill at high concentration”.
